In patent publication US6750214B2, “Quinoline and quinazoline compounds useful in therapy” (priority 1995, dated 2004):

Test system: human prostate
Experiment: Contractile responses of human prostate
Conditions: antagonist affinity estimate against (−)-noradrenaline contractions of human prostatic tissue strips; single antagonist concentration, incubated 2 hours
Protocol: Contractile Responses of Human Prostate
Prostatic tissue was cut into longitudinal strips (approximately 3×2×10 mm) and suspended in organ baths under a resting tension of 1 g in Krebs Ringer bicarbonate of the following composition (mM): NaCl (119), KCl (4.7), CaCl2 (2.5), KH2PO4 (1.2), MgSO4 (1.2), NaHCO3 (25), glucose (11), and gassed with 95% O2/5% CO2. The solution also contained 10 mM cocaine and 10 mM corticosterone. Tissues were exposed to a sensitising dose of (−)-noradrenaline ([…]) and washed over a 45 minute period. Isometric contractions were obtained in response to cumulative additions of (−)-noradrenaline to obtain control curves in all tissues. A further curve was then generated in the presence or absence of antagonist (incubated for 2 hours). Antagonist affinity estimates (pA2) were determined using a single concentration of competing antagonist, pA2=−log [A]/(DR-1) where the dose ratio (DR), relative to corresponding controls, was produced by a single concentration of antagonist [A], assuming competitive antagonism and Schild regression close to unity.

COc1cc2nc(N3CCCN(C(=O)N4C[C@H](O)[C@@H](O)C4)CC3)nc(N)c2c(-c2ccccc2)c1OC.Cl [Example 17, 4-Amino-6,7-dimethoxy-2-{4-[1-(3S,4S-dihydroxypyrrolidine)carbonyl]-1,4-diazepan-1-yl}-5-phenylquinazoline hydrochloride]
pA2 value: 8.5
